Results as given in US6114310A, “Efflux pump inhibitors” (priority 1998, dated 2000).

System: Pseudomonas aeruginosa PAM1001
Experiment: microbe, parasite or virus in culture
Format: cell-based
In short: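 Checkerboard broth microdilution (NCCLS) with the efflux pump inhibitor and levofloxacin, each diluted along one axis of the plate, in Mueller Hinton Broth. Inoculum 5×10^5 CFU/ml from early-log culture; incubation 20 h at 35° C. Growth read at 650 nm and visually.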

[1] = Table 1, EPI Conc. μg/ml (number not given; column between 10 and 40 μg/ml)
[2] = Table 2, EPI Conc. μg/ml (number not given; column between 10 and 40 μg/ml)
[3] = Table 3, EPI Conc. μg/ml (number not given; column between 10 and 40 μg/ml)
[4] = Table 4, EPI Conc. μg/ml (number not given; column between 10 and 40 μg/ml)

Row | Substance | Levofloxacin MIC Against P. aeruginosa PAM1001 in Presence of Efflux Pump Inhibitor (EPI), Minimum Inhibitory Concentration (Table 1, EPI Conc. 0 μg/ml) [µg/mL] | Levofloxacin MIC Against P. aeruginosa PAM1001 in Presence of Efflux Pump Inhibitor (EPI), Minimum Inhibitory Concentration (Table 1, EPI Conc. 0.625 μg/ml) [µg/mL] | Levofloxacin MIC Against P. aeruginosa PAM1001 in Presence of Efflux Pump Inhibitor (EPI), Minimum Inhibitory Concentration (Table 1, EPI Conc. 5 μg/ml) [µg/mL] | Levofloxacin MIC Against P. aeruginosa PAM1001 in Presence of Efflux Pump Inhibitor (EPI), Minimum Inhibitory Concentration (Table 1, EPI Conc. 10 μg/ml) [µg/mL] | Levofloxacin MIC Against P. aeruginosa PAM1001 in Presence of Efflux Pump Inhibitor (EPI), Minimum Inhibitory Concentration (Table 1, EPI Conc. 40 μg/ml) [µg/mL] | Levofloxacin MIC Against P. aeruginosa PAM1001 in Presence of Efflux Pump Inhibitor (EPI), Minimum Inhibitory Concentration [1] [µg/mL] | Levofloxacin MIC Against P. aeruginosa PAM1001 in Presence of Efflux Pump Inhibitor (EPI), Minimum Inhibitory Concentration (Table 2, EPI Conc. 0 μg/ml) [µg/mL] | Levofloxacin MIC Against P. aeruginosa PAM1001 in Presence of Efflux Pump Inhibitor (EPI), Minimum Inhibitory Concentration (Table 2, EPI Conc. 0.625 μg/ml) [µg/mL] | Levofloxacin MIC Against P. aeruginosa PAM1001 in Presence of Efflux Pump Inhibitor (EPI), Minimum Inhibitory Concentration (Table 2, EPI Conc. 5 μg/ml) [µg/mL] | Levofloxacin MIC Against P. aeruginosa PAM1001 in Presence of Efflux Pump Inhibitor (EPI), Minimum Inhibitory Concentration (Table 2, EPI Conc. 10 μg/ml) [µg/mL] | Levofloxacin MIC Against P. aeruginosa PAM1001 in Presence of Efflux Pump Inhibitor (EPI), Minimum Inhibitory Concentration (Table 2, EPI Conc. 40 μg/ml) [µg/mL] | Levofloxacin MIC Against P. aeruginosa PAM1001 in Presence of Efflux Pump Inhibitor (EPI), Minimum Inhibitory Concentration (Table 2, EPI Conc. […]) [µg/mL] | Levofloxacin MIC Against P. aeruginosa PAM1001 in Presence of Efflux Pump Inhibitor (EPI), Minimum Inhibitory Concentration [2] [µg/mL] | Levofloxacin MIC Against P. aeruginosa PAM1001 in Presence of Efflux Pump Inhibitor (EPI), Minimum Inhibitory Concentration (Table 3, EPI Conc. 0 μg/ml) [µg/mL] | Levofloxacin MIC Against P. aeruginosa PAM1001 in Presence of Efflux Pump Inhibitor (EPI), Minimum Inhibitory Concentration (Table 3, EPI Conc. 0.625 μg/ml) [µg/mL] | Levofloxacin MIC Against P. aeruginosa PAM1001 in Presence of Efflux Pump Inhibitor (EPI), Minimum Inhibitory Concentration (Table 3, EPI Conc. 5 μg/ml) [µg/mL] | Levofloxacin MIC Against P. aeruginosa PAM1001 in Presence of Efflux Pump Inhibitor (EPI), Minimum Inhibitory Concentration (Table 3, EPI Conc. 10 μg/ml) [µg/mL] | Levofloxacin MIC Against P. aeruginosa PAM1001 in Presence of Efflux Pump Inhibitor (EPI), Minimum Inhibitory Concentration (Table 3, EPI Conc. 40 μg/ml) [µg/mL] | Levofloxacin MIC Against P. aeruginosa PAM1001 in Presence of Efflux Pump Inhibitor (EPI), Minimum Inhibitory Concentration [3] [µg/mL] | Levofloxacin MIC Against P. aeruginosa PAM1001 in Presence of Efflux Pump Inhibitor (EPI), Minimum Inhibitory Concentration (Table 4, EPI Conc. 0 μg/ml) [µg/mL] | other results
1 | D-Ornithyl-D-β-(3-quinolinyl)alanine 2,3-trimethylenepyridyl-5-amide [Compound 41 (Table 2)] | 4 | 4 | 0.125 | 0.06 | 0.015 | 0.015 | 4 | 4 | 2 | 1 | 0.50 | 4 | 0.25 | 4 | 4 | 4 | 2 | 0.50 | 1 | 4 | Levofloxacin MIC Against P. aeruginosa PAM1001 in Presence of Efflux Pump Inhibitor (EPI), Minimum Inhibitory Concentration (Table 1, EPI Conc. […]): 2 µg/mL; Levofloxacin MIC Against P. aeruginosa PAM1001 in Presence of Efflux Pump Inhibitor (EPI), Minimum Inhibitory Concentration (Table 3, EPI Conc. […]): 4 µg/mL; Levofloxacin MIC Against P. aeruginosa PAM1001 in Presence of Efflux Pump Inhibitor (EPI), Minimum Inhibitory Concentration (Table 4, EPI Conc. 0.625 μg/ml): 4 µg/mL; Levofloxacin MIC Against P. aeruginosa PAM1001 in Presence of Efflux Pump Inhibitor (EPI), Minimum Inhibitory Concentration (Table 4, EPI Conc. 5 μg/ml): 2 µg/mL; Levofloxacin MIC Against P. aeruginosa PAM1001 in Presence of Efflux Pump Inhibitor (EPI), Minimum Inhibitory Concentration (Table 4, EPI Conc. 10 μg/ml): 0.50 µg/mL; Levofloxacin MIC Against P. aeruginosa PAM1001 in Presence of Efflux Pump Inhibitor (EPI), Minimum Inhibitory Concentration (Table 4, EPI Conc. […]): 4 µg/mL; Levofloxacin MIC Against P. aeruginosa PAM1001 in Presence of Efflux Pump Inhibitor (EPI), Minimum Inhibitory Concentration [4]: 0.50 µg/mL
2 | D-Ornithyl-β-(N-4-methylphenethyl)alanine quinoline-3-amide [Compound 32 (Table 3)] | 4 | 4 | 1 | 0.25 | 0.25 | 0.25 | 4 | 4 | 2 | 0.50 | 0.06 | 4 | 0.50 | 4 | 4 | 0.25 | 0.06 | 0.015 | 0.03 | 4 | Levofloxacin MIC Against P. aeruginosa PAM1001 in Presence of Efflux Pump Inhibitor (EPI), Minimum Inhibitory Concentration (Table 4, EPI Conc. 0.625 μg/ml): 4 µg/mL; Levofloxacin MIC Against P. aeruginosa PAM1001 in Presence of Efflux Pump Inhibitor (EPI), Minimum Inhibitory Concentration (Table 4, EPI Conc. 5 μg/ml): 1 µg/mL; Levofloxacin MIC Against P. aeruginosa PAM1001 in Presence of Efflux Pump Inhibitor (EPI), Minimum Inhibitory Concentration (Table 4, EPI Conc. 10 μg/ml): 0.06 µg/mL; Levofloxacin MIC Against P. aeruginosa PAM1001 in Presence of Efflux Pump Inhibitor (EPI), Minimum Inhibitory Concentration (Table 4, EPI Conc. 40 μg/ml): 0.06 µg/mL; Levofloxacin MIC Against P. aeruginosa PAM1001 in Presence of Efflux Pump Inhibitor (EPI), Minimum Inhibitory Concentration [4]: 0.06 µg/mL
3 | D-Ornithyl-β-(N-cyclohexylmethyl)alanine 2-naphthylamide [Compound 17 (Table 3)] | 4 | 4 | 0.06 | 0.06 | 0.015 | 0.03 | 4 | 4 | 4 | 0.50 | 0.015 | 4 | 0.06 | 4 | 4 | 2 | 0.50 | 0.125 | 0.125 | 4 | Levofloxacin MIC Against P. aeruginosa PAM1001 in Presence of Efflux Pump Inhibitor (EPI), Minimum Inhibitory Concentration (Table 1, EPI Conc. […]): 4 µg/mL; Levofloxacin MIC Against P. aeruginosa PAM1001 in Presence of Efflux Pump Inhibitor (EPI), Minimum Inhibitory Concentration (Table 3, EPI Conc. […]): 4 µg/mL; Levofloxacin MIC Against P. aeruginosa PAM1001 in Presence of Efflux Pump Inhibitor (EPI), Minimum Inhibitory Concentration (Table 4, EPI Conc. 0.625 μg/ml): 4 µg/mL; Levofloxacin MIC Against P. aeruginosa PAM1001 in Presence of Efflux Pump Inhibitor (EPI), Minimum Inhibitory Concentration (Table 4, EPI Conc. 5 μg/ml): 4 µg/mL; Levofloxacin MIC Against P. aeruginosa PAM1001 in Presence of Efflux Pump Inhibitor (EPI), Minimum Inhibitory Concentration (Table 4, EPI Conc. 10 μg/ml): 2 µg/mL; Levofloxacin MIC Against P. aeruginosa PAM1001 in Presence of Efflux Pump Inhibitor (EPI), Minimum Inhibitory Concentration (Table 4, EPI Conc. 40 μg/ml): 0.125 µg/mL; Levofloxacin MIC Against P. aeruginosa PAM1001 in Presence of Efflux Pump Inhibitor (EPI), Minimum Inhibitory Concentration (Table 4, EPI Conc. […]): 4 µg/mL; Levofloxacin MIC Against P. aeruginosa PAM1001 in Presence of Efflux Pump Inhibitor (EPI), Minimum Inhibitory Concentration [4]: 1 µg/mL
